The test concerns beta-TC6 cells. The test is described as follows: Insulin HTRF assay (relative activity Ar) in beta-TC6 cells. The class given is cell-based, mouse. Conditions: Mus musculus, Beta-TC6, 4 h, insulin HTRF, supernatant of beta-TC6 cells, incubation with test compound at 37°C for 2, 3, 4h; read-out: Ar (relative activity). In outline:
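beta-TC6 cells (15k/well, seeded 24 or 48 h) washed, then exposed to compound in induction buffer (0.5% DMSO final) for 2, 3 or 4 h at 37°C.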
(In general: Time-resolved FRET reads energy transfer from a long-lived donor to a nearby acceptor.)
Regarding `Cn1c(NCc2ccccc2)nc2cnc(Nc3cccc(F)c3)cc21` [Compound 629, N2-benzyl-N6-(3-fluorophenyl)-1-methyl-imidazo[4,5-c]pyridine-2,6-diamine], the Emax is 30 to 50%.
Then `CC(C)c1cccc(Nc2cc3[nH]c(-c4ccc(C(=O)N(C)C)cc4)cc3cn2)c1` [Compound 36, 4-[6-(3-isopropylanilino)-1H-pyrrolo[3,2-c]pyridin-2-yl]-N,N-dimethyl-benzamide], with 0 to 30%.
For `COCc1nc2cnc(Nc3cc(OC)c(OC)c(OC)c3)cc2n1C` [Compound 745, 2-(methoxymethyl)-1-methyl-N-(3,4,5-trimethoxyphenyl)imidazo[4,5-c]pyridin-6-amine], the Emax lay in the range of 30 to 50%.
`CN(C)c1ccc(-c2cc3cnc(Nc4ccccn4)cc3n2C)cc1` [Compound 59, 2-(4-dimethylaminophenyl)-1-methyl-N-(2-pyridyl)pyrrolo[3,2-c]pyridin-6-amine]: the Emax lay in the range of 0 to 30%.
On to `CC(=O)Nc1cccc(Nc2cc3[nH]c(-c4ccc(C(=O)N(C)C)cc4)cc3cn2)c1` [Compound 41, 4-[6-(3-acetamidoanilino)-1H-pyrrolo[3,2-c]pyridin-2-yl]-N,N-dimethyl-benzamide], for which the Emax was > 100%.
Then `Fc1cccc(-c2nc3c(Nc4cccc(Oc5ccccc5)c4)nccc3[nH]2)c1` [Compound 408, 2-(3-fluorophenyl)-N-(3-phenoxyphenyl)-1H-imidazo[4,5-c]pyridin-4-amine], with 0 to 30%; and `CS(=O)(=O)Nc1cccc(Nc2nccc3[nH]c(-c4ccccc4Cl)nc23)c1` [Compound 463, N-[3-[[2-(2-chlorophenyl)-1H-imidazo[4,5-c]pyridin-4-yl]amino]phenyl]methanesulfonamide], with 30 to 50%; and `CNc1nc2cnc(Nc3ccc(Oc4ccccc4)cc3)cc2n1C` [Compound 749, N2,1-dimethyl-N6-(4-phenoxyphenyl)imidazo[4,5-c]pyridine-2,6-diamine], with 0 to 30%.
Then `CNc1nc2cnc(-c3ccsc3)cc2n1Cc1ccc(OC)c(OC)c1` [Compound 877, 1-[(3,4-dimethoxyphenyl)methyl]-N-methyl-6-(3-thienyl)imidazo[4,5-c]pyridin-2-amine], with 30 to 50%.
Then `c1ccc(CNc2nccc3[nH]c(-c4ccncc4)nc23)cc1` [Compound 428, N-benzyl-2-(4-pyridyl)-1H-imidazo[4,5-c]pyridin-4-amine], with 30 to 50%; and `CN(C)C(=O)c1ccc(-c2cc3c(Nc4cccc(Oc5ccccc5)c4)nccc3n2C)cc1` [Compound 223, N,N-dimethyl-4-[1-methyl-4-(3-phenoxyanilino)pyrrolo[3,2-c]pyridin-2-yl]benzamide], with 0 to 30%.
On to `CC(=O)c1cccc(Nc2cc3[nH]c(-c4cnn(C)c4)cc3cn2)c1` [Compound 124, 1-[3-[[2-(1-methylpyrazol-4-yl)-1H-pyrrolo[3,2-c]pyridin-6-yl]amino]phenyl]ethanone], for which the Emax is > 100%.
Then `CN(C)C(=O)c1ccc(-c2cc3cnc(Nc4cccc(N(C)C)c4)cc3[nH]2)cc1` [Compound 27, 4-[6-[3-(dimethylamino)anilino]-1H-pyrrolo[3,2-c]pyridin-2-yl]-N,N-dimethyl-benzamide], with 50 to 100%.
For the compound `Cc1cccc(Nc2cc3c(cn2)cc(-c2cnn(C)c2)n3C)c1` [Compound 136, 1-methyl-2-(1-methylpyrazol-4-yl)-N-(m-tolyl)pyrrolo[3,2-c]pyridin-6-amine], the Emax is 50 to 100%.
The same measure for `CS(=O)(=O)c1ccc(Nc2nccc3[nH]c(-c4cccc(F)c4)cc23)cc1` [Compound 207, 2-(3-fluorophenyl)-N-(4-methylsulfonylphenyl)-1H-pyrrolo[3,2-c]pyridin-4-amine]: 50 to 100%; for `CC(C)Oc1cccc(Nc2cc3[nH]c(-c4ccc(C(=O)N(C)C)cc4)cc3cn2)c1` [Compound 44, 4-[6-(3-isopropoxyanilino)-1H-pyrrolo[3,2-c]pyridin-2-yl]-N,N-dimethyl-benzamide]: 30 to 50%; for `COc1cccc(-c2cc3c(Nc4ccc(NC(C)=O)cc4)nccc3[nH]2)c1` [Compound 306, N-[4-[[2-(3-methoxyphenyl)-1H-pyrrolo[3,2-c]pyridin-4-yl]amino]phenyl]acetamide]: 50 to 100%.
For `CNc1nc2cnc(Nc3cccc(C(C)=O)c3)cc2n1Cc1ccc(OC)c(OC)c1` [Compound 673, 1-[3-[[1-[(3,4-dimethoxyphenyl)methyl]-2-(methylamino)imidazo[4,5-c]pyridin-6-yl]amino]phenyl]ethanone], the Emax fell in the range of 50 to 100%.
The same measure for `CN(C)c1cccc(Nc2cc3[nH]c(-c4cncn4C)cc3cn2)c1` [Compound 104, N1,N1-dimethyl-N3-[2-(3-methylimidazol-4-yl)-1H-pyrrolo[3,2-c]pyridin-6-yl]benzene-1,3-diamine]: 50 to 100%.
For `CC(=O)Nc1cccc(Nc2nccc3[nH]c(-c4ccccc4)cc23)c1` [Compound 323, N-[3-[(2-phenyl-1 H-pyrrolo[3,2-c]pyridin-4-yl)amino]phenyl]acetamide], the Emax lay within 50 to 100%.
Then `CN(C)C(=O)c1ccc(-c2cc3cnc(Nc4ccc(Oc5ccccc5)cc4)cc3[nH]2)cc1` [Compound 25, N,N-dimethyl-4-[6-(4-phenoxyanilino)-1H-pyrrolo[3,2-c]pyridin-2-yl]benzamide], with 0 to 30%.
The same measure for `COc1cc(Nc2cc3[nH]c(-c4ccccn4)cc3cn2)cc(OC)c1OC` [Compound 62, 2-(2-pyridyl)-N-(3,4,5-trimethoxyphenyl)-1H-pyrrolo[3,2-c]pyridin-6-amine]: > 100%.
Regarding `CN(C)c1cccc(Nc2nccc3c2cc(-c2cccnc2)n3C)c1` [Compound 239, N1,N1-dimethyl-N3-[1-methyl-2-(3-pyridyl)pyrrolo[3,2-c]pyridin-4-yl]benzene-1,3-diamine], the Emax was in the range of 30 to 50%.
For the compound `CNc1nc2cnc(Nc3ccccc3)cc2n1Cc1cccnc1` [Compound 562, N2-methyl-N6-phenyl-1-(3-pyridylmethyl)imidazo[4,5-c]pyridine-2,6-diamine], the Emax was 30 to 50%.
For the compound `CNc1nc2cnc(-c3ccc(OC)cc3)cc2n1Cc1ccc(OC)c(OC)c1` [Compound 672, 1-[(3,4-dimethoxyphenyl)methyl]-6-(4-methoxyphenyl)-N-methyl-imidazo[4,5-c]pyridin-2-amine], the Emax was in the range of 30 to 50%.
For `CNc1nc2cnc(Nc3cccc(NC(C)=O)c3)cc2n1-c1cc(OC)c(OC)c(OC)c1` [Compound 493, N-[3-[[2-(methylamino)-1-(3,4,5-trimethoxyphenyl)imidazo[4,5-c]pyridin-6-yl]amino]phenyl]acetamide], the Emax is 50 to 100%.
Regarding `CN(C)C(=O)c1ccc(-c2cc3c(Nc4cccc(OC(F)(F)F)c4)nccc3n2C)cc1` [Compound 222, N,N-dimethyl-4-[1-methyl-4-[3-(trifluoromethoxy)anilino]pyrrolo[3,2-c]pyridin-2-yl]benzamide], the Emax was in the range of 0 to 30%.
The same measure for `CN(C)C(=O)c1ccc(-c2cc3cnc(Nc4ccncn4)cc3n2Cc2ccccc2)cc1` [Compound 58, 4-[1-benzyl-6-(pyrimidin-4-ylamino)pyrrolo[3,2-c]pyridin-2-yl]-N,N-dimethyl-benzamide]: 30 to 50%.
With `Cc1ccc(-c2nc3ccncc3[nH]2)cc1` [Compound 774, 2-(p-tolyl)-3H-imidazo[4,5-c]pyridine], the Emax was 0 to 30%.
Take `COc1ccc(Nc2cc3c(cn2)ncn3Cc2ccco2)cc1` [Compound 693, 1-(2-furylmethyl)-N-(4-methoxyphenyl)imidazo[4,5-c]pyridin-6-amine]: the Emax fell in the range of 50 to 100%.
The same measure for `COc1cccc(-c2nc3c(Nc4ccccc4)nccc3[nH]2)c1` [Compound 370, 2-(3-methoxyphenyl)-N-phenyl-1H-imidazo[4,5-c]pyridin-4-amine]: 30 to 50%; for `CNc1nc2cnc(-c3ccoc3)cc2n1Cc1ccccc1` [Compound 798, 1-benzyl-6-(3-furyl)-N-methyl-imidazo[4,5-c]pyridin-2-amine]: 30 to 50%; for `CC(=O)c1cccc(Nc2cc3[nH]c(-c4cn[nH]c4)cc3cn2)c1` [Compound 118, 1-[3-[[2-(1 H-pyrazol-4-yl)-1H-pyrrolo[3,2-c]pyridin-6-yl]amino]phenyl]ethanone]: > 100%.
The same measure for `COCCNc1nc2cnc(-c3ccc(OC)nc3)cc2n1C` [Compound 751, N-(2-methoxyethyl)-6-(6-methoxy-3-pyridyl)-1-methyl-imidazo[4,5-c]pyridin-2-amine]: 0 to 30%.
The same measure for `CN(C)c1cccc(-c2cc3c(cn2)ncn3-c2cccc(F)c2)c1` [Compound 740, 3-[1-(3-fluorophenyl)imidazo[4,5-c]pyridin-6-yl]-N,N-dimethyl-aniline]: 50 to 100%; for `CNc1nc2cnc(-c3cccc4ccccc34)cc2n1Cc1ccc(OC)c(OC)c1` [Compound 670, 1-[(3,4-dimethoxyphenyl)methyl]-N-methyl-6-(1-naphthyl)imidazo[4,5-c]pyridin-2-amine]: 30 to 50%.
Take `COc1cccc(Nc2cc3[nH]c(-c4ccc(C(=O)N(C)C)cc4)cc3cn2)c1` [Compound 19, 4-[6-(3-methoxyanilino)-1H-pyrrolo[3,2-c]pyridin-2-yl]-N,N-dimethyl-benzamide]: the Emax was in the range of 50 to 100%.
The same measure for `COc1ccc(Nc2nccc3[nH]c(-c4ccncc4)nc23)cc1O` [Compound 432, 2-methoxy-5-[[2-(4-pyridyl)-1H-imidazo[4,5-c]pyridin-4-yl]amino]phenol]: > 100%; for `CNc1nc2cnc(-c3ccccc3Oc3ccccc3)cc2n1Cc1ccccc1` [Compound 529, 1-benzyl-N-methyl-6-(2-phenoxyphenyl)imidazo[4,5-c]pyridin-2-amine]: 30 to 50%.
Take `COc1ccc(Nc2cc3c(cn2)ncn3C)c(OC)c1` [Compound 727, N-(2,4-dimethoxyphenyl)-1-methyl-imidazo[4,5-c]pyridin-6-amine]: the Emax is 50 to 100%.
Turning to `Cc1cccc(-c2nc3c(Nc4cccc(O)c4)nccc3[nH]2)c1` [Compound 438, 3-[[2-(m-tolyl)-1H-imidazo[4,5-c]pyridin-4-yl]amino]phenol], the Emax is 30 to 50%.

The record behind these values is EP2818472A1, “Imidazo[4,5-c]pyridine and pyrrolo[3,2-c]pyridine compounds as G-protein-coupled receptor kinase 5 (GRK5) modulators” (Max-Planck-Gesellschaft zur Förderung der Wissenschaften …, priority 2013, dated 2014).
